29 molecules from patent US20240059691A1 (KALVISTA PHARMACEUTICALS LIMITED, priority 2020, published 2024) can be followed below.

Some results are limits rather than exact numbers.

The target in one assay is Human Factor XIIa (Homo sapiens (Human), UniProt P00748). In words: Determination of FXIIa inhibition (fluorogenic substrate H-DPro-Phe-Arg-AFC, IC50 assay). In kind it is biochemical. Particulars: substrate H-DPro-Phe-Arg-AFC at Km, 25° C.; class scale A-G. The method in brief:
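Human FXIIa incubated at 25° C with fluorogenic substrate H-DPro-Phe-Arg-AFC at its Km concentration and varying compound concentrations. Fluorescence release monitored over 5 min at 25° C; linear rate expressed as % of uninhibited activity to derive IC50.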

Another assay addresses Plasma Kallikrein (Homo sapiens (Human), UniProt P03952). In words: Determination of related protease inhibition: Plasma Kallikrein (fluorogenic substrate at Km). In kind it is biochemical. The note with it: 25° C., read-out: IC50 (human PKal). The method in brief: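 Human enzyme incubated with test compound over a concentration range and a fluorogenic substrate at its Km concentration. Liberated fluorescence monitored over 5 min at 25 °C; linear rate per minute expressed as % of uninhibited activity, and IC50 taken as the concentration giving 50% inhibition.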

Sequence of Plasma Kallikrein (P03952 391-638): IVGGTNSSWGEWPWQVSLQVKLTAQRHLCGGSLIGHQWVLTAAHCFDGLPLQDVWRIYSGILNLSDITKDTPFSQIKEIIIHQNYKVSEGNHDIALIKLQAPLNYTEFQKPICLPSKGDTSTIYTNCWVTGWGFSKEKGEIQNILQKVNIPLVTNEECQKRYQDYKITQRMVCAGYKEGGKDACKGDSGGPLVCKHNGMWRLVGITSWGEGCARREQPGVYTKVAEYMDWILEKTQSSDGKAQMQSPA
Sequence of Plasma Kallikrein (P03952 20-390 partner): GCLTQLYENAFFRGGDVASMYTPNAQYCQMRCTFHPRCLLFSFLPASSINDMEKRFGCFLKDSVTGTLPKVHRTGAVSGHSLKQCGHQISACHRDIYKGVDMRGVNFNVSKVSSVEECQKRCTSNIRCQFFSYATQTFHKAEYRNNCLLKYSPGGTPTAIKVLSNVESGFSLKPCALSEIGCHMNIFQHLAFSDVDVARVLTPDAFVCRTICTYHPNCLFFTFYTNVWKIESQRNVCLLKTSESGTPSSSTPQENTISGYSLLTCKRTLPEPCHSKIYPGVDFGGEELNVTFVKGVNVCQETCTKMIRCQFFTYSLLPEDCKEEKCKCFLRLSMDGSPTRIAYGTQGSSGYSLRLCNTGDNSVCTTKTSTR
Sequence of Human Factor XIIa (P00748 373-615): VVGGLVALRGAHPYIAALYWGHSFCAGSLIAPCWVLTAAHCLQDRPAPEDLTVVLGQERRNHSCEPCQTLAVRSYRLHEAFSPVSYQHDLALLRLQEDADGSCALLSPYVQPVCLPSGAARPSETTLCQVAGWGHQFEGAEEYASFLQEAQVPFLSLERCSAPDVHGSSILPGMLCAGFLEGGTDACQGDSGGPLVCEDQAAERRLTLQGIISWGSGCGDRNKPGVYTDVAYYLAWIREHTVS

Usually IC50 stands for the concentration that gives 50% inhibition. With `Nc1ncc(Cl)c2cc(NCc3ccnc(OCC4CCCn5ccnc54)c3)ccc12` (single isomer, unassigned) [Example 4450, (S*)-4-chloro-N6-((2-((5,6,7,8-tetrahydroimidazo[1,2-a]pyridin-8-yl)methoxy)pyridin-4-yl)methyl)isoquinoline-1,6-diamine], the IC50 against Human Factor XIIa is 0.1 to 0.3 µM; on Plasma Kallikrein, 10 to 40 µM.
Taken in the same sequence, the figures for `Nc1ncc(Cl)c2cc(NCc3ccnc(OCC4CCCn5ccnc54)c3)ccc12` (single isomer, unassigned) [Example 4451, (R*)-4-chloro-N6-((2-((5,6,7,8-tetrahydroimidazo[1,2-a]pyridin-8-yl)methoxy)pyridin-4-yl)methyl)isoquinoline-1,6-diamine] were 0.3 to 1 µM and above 40 µM.
On to `CN1CCC(Oc2ccc(CNc3ccc4ccnc(N)c4c3)cc2)CC1` [Example 1003, N7-(4-((1-methylpiperidin-4-yl)oxy)benzyl)isoquinoline-1,7-diamine], for which the results for the 50% inhibitory concentration (IC50) against Human Factor XIIa and on Plasma Kallikrein were 3 to 10 µM and 10 to 40 µM, respectively.
With `CN1CCC(Oc2ccc(CNc3cnc4[nH]cc(Cl)c4c3)cc2)CC1` [Example 1004, 3-Chloro-N-(4-((1-methylpiperidin-4-yl)oxy)benzyl)-1H-pyrrolo[2,3-b]pyridin-5-amine], the IC50 was 10 to 40 µM on Human Factor XIIa and above 40 µM on Plasma Kallikrein.
On to `CN1CCC(OCc2ccc(COc3ccc4c(N)nccc4c3)cc2)CC1` [Example 1011, 6-((4-(((1-Methylpiperidin-4-yl)oxy)methyl)benzyl)oxy)isoquinolin-1-amine], for which the results for the IC50 against Human Factor XIIa and at Plasma Kallikrein were 3 to 10 µM and 10 to 40 µM, respectively.
`Nc1nccc2c(NCc3cnc(NCCC(=O)N4CCCC4)nc3)cccc12` [Example 1039, 3-[(5-{[(1-aminoisoquinolin-5-yl)amino]methyl}pyrimidin-2-yl)amino]-1-(pyrrolidin-1-yl)propan-1-one]: the IC50 at Human Factor XIIa is 10 to 40 µM; on Plasma Kallikrein, above 40 µM.
Regarding `Nc1ncc(Cl)c2cc(NCc3cnc(NCCC(=O)N4CCCC4)nc3)ccc12` [Example 1040, 3-[(5-{[(1-amino-4-chloroisoquinolin-6-yl)amino]methyl}pyrimidin-2-yl)amino]-1-(pyrrolidin-1-yl)propan-1-one], the figures for the IC50 on Human Factor XIIa and on Plasma Kallikrein were 10 to 40 µM and above 40 µM, respectively.
For `Nc1nccc2c(NCc3cnc(OCC4CCn5ccnc5C4)nc3)cccc12` (stereo not shown) [Example 1042, 5-N-[(2-{5H,6H,7H,8H-imidazo[1,2-a]pyridin-7-ylmethoxy}pyrimidin-5-yl)methyl]isoquinoline-1,5-diamine], in that order: 0.1 to 0.3 µM and above 4 µM.
Consider `Nc1ncc(Cl)c2cc(NCc3cnc(NCC4CCn5ccnc5C4)nc3)ccc12` (stereo not shown) [Example 1043, 4-chloro-6-N-{[2-({5H,6H,7H,8H-imidazo[1,2-a]pyridin-7-ylmethyl}amino)pyrimidin-5-yl]methyl}isoquinoline-1,6-diamine], for which the figures for the IC50 against Human Factor XIIa and on Plasma Kallikrein were 0.3 to 1 µM and 3 to 10 µM, respectively.
For `Nc1ncc(Cl)c2cc(NCc3ccc(NCC4CCn5ccnc5C4)nc3)ccc12` (stereo not shown) [Example 1044, 4-Chloro-N6-[[6-(5,6,7,8-tetrahydroimidazo[1,2-a]pyridin-7-ylmethylamino)-3-pyridyl]methyl]isoquinoline-1,6-diamine], in that order: 0.1 to 0.3 µM and 3 to 10 µM.
Taken in the same sequence, the figures for `Nc1nccc2c(NCc3ccc(OC4CCn5ccnc5C4)nc3)cccc12` (stereo not shown) [Example 1049, N5-[[6-(5,6,7,8-tetrahydroimidazo[1,2-a]pyridin-7-yloxy)-3-pyridyl]methyl]isoquinoline-1,5-diamine] were 0.3 to 1 µM and above 40 µM.
On to `Nc1ncc(Cl)c2cc(NCc3ccc(OC4CCn5ccnc5C4)nc3)ccc12` (stereo not shown) [Example 1050, 4-chloro-6-N-[(6-{5H,6H,7H,8H-imidazo[1,2-a]pyridin-7-yloxy}pyridin-3-yl)methyl]isoquinoline-1,6-diamine], for which the values for the IC50 at Human Factor XIIa and on Plasma Kallikrein were 1 to 3 µM and above 40 µM, respectively.
Taken in the same sequence, the figures for `Nc1ncc(Cl)c2cc(NCc3cnc(OCC4CCn5ccnc5C4)nc3)ccc12` (stereo not shown) [Example 1052, 4-Chloro-N6-[[2-(5,6,7,8-tetrahydroimidazo[1,2-a]pyridin-7-ylmethoxy)pyrimidin-5-yl]methyl]isoquinoline-1,6-diamine] were 0.3 to 1 µM and above 40 µM.
Consider `Cc1cc(NCc2ccc(NCC3CCN(C)CC3)nc2)cc2ccncc12` [Example 1102, 8-methyl-N-((6-(((1-methylpiperidin-4-yl)methyl)amino)pyridin-3-yl)methyl)isoquinolin-6-amine], for which the IC50 against Human Factor XIIa lay within 3 to 10 µM; on Plasma Kallikrein, 10 to 40 µM.
Consider `COc1cc(NCc2ccc(NCC3CCN(C)CC3)nc2)cc2ccncc12` [Example 1103, 8-methoxy-N-((6-(((1-methylpiperidin-4-yl)methyl)amino)pyridin-3-yl)methyl)isoquinolin-6-amine], for which the IC50 against Human Factor XIIa and at Plasma Kallikrein was 10 to 40 µM each time.
As to `Cc1n[nH]c2c1CCC2Nc1ccc(CNc2ccc3c(N)ncc(Cl)c3c2)cn1` (stereo not shown) [Example 1118, 4-chloro-6-N-{[6-({3-methyl-1H,4H,5H,6H-cyclopenta[c]pyrazol-6-yl}amino)pyridin-3-yl]methyl}isoquinoline-1,6-diamine], the IC50 at Human Factor XIIa was 10 to 40 µM; on Plasma Kallikrein it was above 40 µM.
With `Cc1n[nH]c2c1CCC2Nc1ccc(CNc2cccc3c(N)nccc23)cn1` (stereo not shown) [Example 1119, N5-((6-((3-methyl-1,4,5,6-tetrahydrocyclopenta[c]pyrazol-6-yl)amino)pyridin-3-yl)methyl)isoquinoline-1,5-diamine], the IC50 at Human Factor XIIa and on Plasma Kallikrein was 10 to 40 µM throughout.
For the molecule `Nc1ncc(Cl)c2cc(NCc3ccc(N4CCn5ccnc5C4)nc3)ccc12` [Example 1129, 4-chloro-6-N-[(6-{5H,6H,8H-imidazo[1,2-a]pyrazin-7-yl}pyridin-3-yl)methyl]isoquinoline-1,6-diamine], the IC50 on Human Factor XIIa is 3 to 10 µM; on Plasma Kallikrein, above 40 µM.
Take `CC(C)(O)[C@@H]1CCN(c2ccc(CNc3cccc4c(N)nccc34)cn2)C1` [Example 1130, (R)-2-(1-(5-(((1-aminoisoquinolin-5-yl)amino)methyl)pyridin-2-yl)pyrrolidin-3-yl)propan-2-ol]: the IC50 against Human Factor XIIa was 3 to 10 µM; on Plasma Kallikrein, above 40 µM.
Taken in the same sequence, the figures for `CC(C)(O)[C@H]1CCN(c2ccc(CNc3cccc4c(N)nccc34)cn2)C1` [Example 1131, 2-[(3S)-1-[5-[[(1-Amino-5-isoquinolyl)amino]methyl]-2-pyridyl]pyrrolidin-3-yl]propan-2-ol] were 1 to 3 µM and 10 to 40 µM.
Taken in the same sequence, the figures for `Nc1nccc2c(NCc3ccc(N4Cc5nccn5C(CO)C4)nc3)cccc12` (stereo not shown) [Example 1133, (7-(5-(((1-aminoisoquinolin-5-yl)amino)methyl)pyridin-2-yl)-5,6,7,8-tetrahydroimidazo[1,2-a]pyrazin-5-yl)methanol] were 3 to 10 µM and above 40 µM.
Taken in the same sequence, the figures for `CC(C)(O)C1CN(c2ccc(CNc3cccc4c(N)nccc34)cn2)Cc2nccn21` (stereo not shown) [Example 1135, 2-(7-(5-(((1-aminoisoquinolin-5-yl)amino)methyl)pyridin-2-yl)-5,6,7,8-tetrahydroimidazo[1,2-a]pyrazin-5-yl)propan-2-ol] were 3 to 10 µM and above 40 µM.
As to `Nc1nccc2c(NCc3ccc(N4Cc5nccn5CC4CO)nc3)cccc12` (stereo not shown) [Example 1137, (7-(5-(((1-aminoisoquinolin-5-yl)amino)methyl)pyridin-2-yl)-5,6,7,8-tetrahydroimidazo[1,2-a]pyrazin-6-yl)methanol], the IC50 at Human Factor XIIa is 1 to 3 µM; at Plasma Kallikrein it was above 40 µM.
As for `Nc1nccc2c(NCc3ccc(N4CCn5ccnc5C4CO)nc3)cccc12` (stereo not shown) [Example 1140, (7-(5-(((1-aminoisoquinolin-5-yl)amino)methyl)pyridin-2-yl)-5,6,7,8-tetrahydroimidazo[1,2-a]pyrazin-8-yl)methanol], the IC50 was 3 to 10 µM against Human Factor XIIa and above 40 µM at Plasma Kallikrein.
Taken in the same sequence, the figures for `CC1c2nccn2CCN1c1ccc(CNc2cccc3c(N)nccc23)cn1` (stereo not shown) [Example 1150, N5-((6-(8-methyl-5,6-dihydroimidazo[1,2-a]pyrazin-7(8H)-yl)pyridin-3-yl)methyl)isoquinoline-1,5-diamine] were 0.3 to 1 µM and above 40 µM.
With `Nc1nccc2c(NCc3ccc(N4CCn5nccc5C4)nc3)cccc12` [Example 1156, N5-((6-(6,7-dihydropyrazolo[1,5-a]pyrazin-5(4H)-yl)pyridin-3-yl)methyl)isoquinoline-1,5-diamine], the results for the IC50 at Human Factor XIIa and at Plasma Kallikrein were 10 to 40 µM and above 40 µM, respectively.
For `CC(C)(O)c1cn2c(n1)CN(c1ccc(CNc3cccc4c(N)nccc34)cn1)CC2` [Example 1163, 2-(7-(5-(((1-aminoisoquinolin-5-yl)amino)methyl)pyridin-2-yl)-5,6,7,8-tetrahydroimidazo[1,2-a]pyrazin-2-yl)propan-2-ol], in that order: 3 to 10 µM and above 40 µM.
Taken in the same sequence, the figures for `CC(C)(O)c1cnc2n1CCN(c1ccc(CNc3cccc4c(N)nccc34)cn1)C2` [Example 1167, 2-(7-(5-(((1-aminoisoquinolin-5-yl)amino)methyl)pyridin-2-yl)-5,6,7,8-tetrahydroimidazo[1,2-a]pyrazin-3-yl)propan-2-ol] were 3 to 10 µM and above 40 µM.
`CC(C)(O)[C@H]1CCN(c2ccc(CNc3ccc4c(N)ncc(Cl)c4c3)cn2)C1` [Example 1176, 2-[(3S)-1-(5-{[(1-amino-4-chloroisoquinolin-6-yl)amino]methyl}pyridin-2-yl)pyrrolidin-3-yl]propan-2-ol]: the results for the IC50 against Human Factor XIIa and at Plasma Kallikrein were 3 to 10 µM and above 40 µM, respectively.
